Reference: ChEMBL document CHEMBL5620413, “Novel pterostilbene derivatives ameliorate heart failure by reducing oxidative stress and inflammation through regulating Nrf2/NF-κB signaling pathway” (Eur J Med Chem, 2023)
Calls of active or inactive are those of the source. The calls are words filed in the database; no cut-off is given here.

Tests used:
RAW264.7 [1] = assay: Antiinflammatory activity in mouse RAW264.7 cells assessed as decrease in LPS-induced NO production at 10 uM preincubated for 1 hr followed by LPS treatment for 24 hrs by Griess reagent based assay; type: functional, cell-based; conditions: time 25.0 hrs
RAW264.7 [2] = assay: Antiinflammatory activity in mouse RAW264.7 cells assessed as LPS-induced NO production preincubated for 1 hr followed by LPS treatment for 24 hrs by Griess reagent based assay; type: functional; conditions: time 25 hrs
RAW264.7 [3] = assay: Antiinflammatory activity in mouse RAW264.7 cells assessed as decrease in LPS-induced iNOS expression preincubated for 1 hr followed by LPS treatment for 24 hrs by Western blot analysis; type: functional, cell-based; conditions: dose <= 10.0 µM, time 25.0 hrs
RAW264.7 [4] = assay: Antiinflammatory activity in mouse RAW264.7 cells assessed as decrease in LPS-induced COX2 expression preincubated for 1 hr followed by LPS treatment for 24 hrs by Western blot analysis; type: functional, cell-based; conditions: dose <= 10.0 µM, time 25.0 hrs
RAW264.7 [5] = assay: Inhibition of ROS generation in mouse RAW264.7 cells assessed as increase in LPS-reduced Nrf2 expression upto 10 uM preincubated for 1 hr followed by LPS treatment for 24 hrs by Western blot analysis; type: functional, cell-based; conditions: time 25.0 hrs
H9c2 [6] = assay: Inhibition of ROS generation in rat H9c2 cells assessed as increase in DOX-reduced CAT expression upto 10 uM preincubated for 1 hr followed by DOX treatment for 12 hrs by Western blot analysis; type: functional, cell-based; conditions: time 13.0 hrs
RAW264.7 [7] = assay: Antiinflammatory activity against mouse RAW264.7 cells assessed as decrease in LPS-induced IL-6 expression upto 10 uM preincubated for 1 hr followed by LPS treatment for 24 hrs by Western blot analysis; type: functional, cell-based; conditions: time 25.0 hrs
H9c2 [8] = assay: Antiinflammatory activity against rat H9c2 cells assessed as decrease in DOX-induced TNF-alpha expression upto 10 uM preincubated for 1 hr followed by DOX treatment for 12 hrs by Western blot analysis; type: functional, cell-based; conditions: time 13.0 hrs
RAW264.7 [9] = assay: Antiinflammatory activity against mouse RAW264.7 cells assessed as decrease in LPS-induced NF-kappaB phosphorylation upto 10 uM preincubated for 1 hr followed by LPS treatment for 24 hrs by Western blot analysis; type: functional, cell-based; conditions: time 25.0 hrs
RAW264.7 [10] = assay: Antiinflammatory activity against mouse RAW264.7 cells assessed as decrease in DOX-induced NF-kappaB phosphorylation upto 10 uM preincubated for 1 hr followed by DOX treatment for 12 hrs by Western blot analysis; type: functional, cell-based; conditions: time 13.0 hrs
Mus musculus [11] = assay: Protection against cardiac dysfunction C57BL/6J mouse model assessed as increase in DOX-reduced LVFS at 7 mg/kg, ip administered daily for 4 weeks by echocardiography; type: functional, organism-based
Mus musculus [12] = assay: Protection against cardiac dysfunction C57BL/6J mouse model assessed as increase in DOX-reduced heart rate at 7 mg/kg, ip administered daily for 4 weeks by echocardiography; type: functional, organism-based
Mus musculus [13] = assay: Protection against cardiac dysfunction C57BL/6J mouse model assessed as increase in DOX-reduced heart size at 7 mg/kg, ip administered daily for 4 weeks; type: functional, organism-based
Mus musculus [14] = assay: Protection against cardiac dysfunction C57BL/6J mouse model assessed as decrease in DOX-induced serum LDH level at 7 mg/kg, ip administered daily for 4 weeks; type: functional, organism-based
Mus musculus [15] = assay: Protection against cardiac dysfunction C57BL/6J mouse model assessed as decrease in DOX-induced myocardial cell injury at 7 mg/kg, ip administered daily for 4 weeks by H and E staining based analysis; type: functional, organism-based
Mus musculus [16] = assay: Protection against cardiac dysfunction C57BL/6J mouse model assessed as decrease in DOX-induced alpha-SMA expression at 7 mg/kg, ip administered daily for 4 weeks by Western blot analysis; type: functional, organism-based
Mus musculus [17] = assay: Protection against cardiac dysfunction C57BL/6J mouse model assessed as increase in DOX-reduced cardiac SOD1 expression at 7 mg/kg, ip administered daily for 4 weeks by Western blot analysis; type: functional, organism-based
Mus musculus [18] = assay: Protection against cardiac dysfunction C57BL/6J mouse model assessed as increase in DOX-reduced cardiac SOD2 expression at 7 mg/kg, ip administered daily for 4 weeks by Western blot analysis; type: functional, organism-based
Mus musculus [19] = assay: Protection against cardiac dysfunction C57BL/6J mouse model assessed as increase in DOX-reduced cardiac NQO1 expression at 7 mg/kg, ip administered daily for 4 weeks by Western blot analysis; type: functional, organism-based
Mus musculus [20] = assay: Protection against cardiac dysfunction C57BL/6J mouse model assessed as increase in DOX-reduced cardiac CAT expression at 7 mg/kg, ip administered daily for 4 weeks by Western blot analysis; type: functional, organism-based
Mus musculus [21] = assay: Protection against cardiac dysfunction C57BL/6J mouse model assessed as increase in DOX-reduced cardiac Nrf2 expression at 7 mg/kg, ip administered daily for 4 weeks by Western blot analysis; type: functional, organism-based
Mus musculus [22] = assay: Antiinflammatory activity in cardiac dysfunction C57BL/6J mouse model assessed as decrease in DOX-induced NF-kappaB expression at 7 mg/kg, ip administered daily for 4 weeks by Western blot analysis; type: functional, organism-based

CCCCOc1ccc(/C=C/c2cc(OC)cc(OC)c2C2CC(C)=NN2C(C)=O)cc1 (configuration not stated)
Activity (RAW264.7 [1]): Active | Activity (RAW264.7 [2]): 0.198 µM | Activity (RAW264.7 [3]): Dose-Dependent Effect | Activity (RAW264.7 [4]): Dose-Dependent Effect | inhibition (RAW264.7 [5]): Active | inhibition (H9c2 [6]): Active | Activity (RAW264.7 [7]): Active | Activity (H9c2 [8]): Active | Activity (RAW264.7 [9]): Active | Activity (RAW264.7 [10]): Active | Activity (Mus musculus [11]): Active | Activity (Mus musculus [12]): Active | Activity (Mus musculus [13]): Active | Activity (Mus musculus [14]): Active | Activity (Mus musculus [15]): Active | Activity (Mus musculus [16]): Active | Activity (Mus musculus [17]): Active | Activity (Mus musculus [18]): Active | Activity (Mus musculus [19]): Active | Activity (Mus musculus [20]): Active | Activity (Mus musculus [21]): Active | Activity (Mus musculus [22]): Active
